Experimental findings from US9096602B2, “Substituted pyrrolo[2,3-B]pyrazines as ATR kinase inhibitors” (Vertex Pharmaceuticals Incorporated, priority 2011, dated 2015) are described below.

Each structure is given as a SMILES string.

The target in one assay is T1, ATR kinase (full-length ATR) (Homo sapiens, UniProt Q13535).
T1 construct: Assays were carried out at 25° C. in the presence of 5 nM full-length ATR
T1 sequence (Q13535 whole entry): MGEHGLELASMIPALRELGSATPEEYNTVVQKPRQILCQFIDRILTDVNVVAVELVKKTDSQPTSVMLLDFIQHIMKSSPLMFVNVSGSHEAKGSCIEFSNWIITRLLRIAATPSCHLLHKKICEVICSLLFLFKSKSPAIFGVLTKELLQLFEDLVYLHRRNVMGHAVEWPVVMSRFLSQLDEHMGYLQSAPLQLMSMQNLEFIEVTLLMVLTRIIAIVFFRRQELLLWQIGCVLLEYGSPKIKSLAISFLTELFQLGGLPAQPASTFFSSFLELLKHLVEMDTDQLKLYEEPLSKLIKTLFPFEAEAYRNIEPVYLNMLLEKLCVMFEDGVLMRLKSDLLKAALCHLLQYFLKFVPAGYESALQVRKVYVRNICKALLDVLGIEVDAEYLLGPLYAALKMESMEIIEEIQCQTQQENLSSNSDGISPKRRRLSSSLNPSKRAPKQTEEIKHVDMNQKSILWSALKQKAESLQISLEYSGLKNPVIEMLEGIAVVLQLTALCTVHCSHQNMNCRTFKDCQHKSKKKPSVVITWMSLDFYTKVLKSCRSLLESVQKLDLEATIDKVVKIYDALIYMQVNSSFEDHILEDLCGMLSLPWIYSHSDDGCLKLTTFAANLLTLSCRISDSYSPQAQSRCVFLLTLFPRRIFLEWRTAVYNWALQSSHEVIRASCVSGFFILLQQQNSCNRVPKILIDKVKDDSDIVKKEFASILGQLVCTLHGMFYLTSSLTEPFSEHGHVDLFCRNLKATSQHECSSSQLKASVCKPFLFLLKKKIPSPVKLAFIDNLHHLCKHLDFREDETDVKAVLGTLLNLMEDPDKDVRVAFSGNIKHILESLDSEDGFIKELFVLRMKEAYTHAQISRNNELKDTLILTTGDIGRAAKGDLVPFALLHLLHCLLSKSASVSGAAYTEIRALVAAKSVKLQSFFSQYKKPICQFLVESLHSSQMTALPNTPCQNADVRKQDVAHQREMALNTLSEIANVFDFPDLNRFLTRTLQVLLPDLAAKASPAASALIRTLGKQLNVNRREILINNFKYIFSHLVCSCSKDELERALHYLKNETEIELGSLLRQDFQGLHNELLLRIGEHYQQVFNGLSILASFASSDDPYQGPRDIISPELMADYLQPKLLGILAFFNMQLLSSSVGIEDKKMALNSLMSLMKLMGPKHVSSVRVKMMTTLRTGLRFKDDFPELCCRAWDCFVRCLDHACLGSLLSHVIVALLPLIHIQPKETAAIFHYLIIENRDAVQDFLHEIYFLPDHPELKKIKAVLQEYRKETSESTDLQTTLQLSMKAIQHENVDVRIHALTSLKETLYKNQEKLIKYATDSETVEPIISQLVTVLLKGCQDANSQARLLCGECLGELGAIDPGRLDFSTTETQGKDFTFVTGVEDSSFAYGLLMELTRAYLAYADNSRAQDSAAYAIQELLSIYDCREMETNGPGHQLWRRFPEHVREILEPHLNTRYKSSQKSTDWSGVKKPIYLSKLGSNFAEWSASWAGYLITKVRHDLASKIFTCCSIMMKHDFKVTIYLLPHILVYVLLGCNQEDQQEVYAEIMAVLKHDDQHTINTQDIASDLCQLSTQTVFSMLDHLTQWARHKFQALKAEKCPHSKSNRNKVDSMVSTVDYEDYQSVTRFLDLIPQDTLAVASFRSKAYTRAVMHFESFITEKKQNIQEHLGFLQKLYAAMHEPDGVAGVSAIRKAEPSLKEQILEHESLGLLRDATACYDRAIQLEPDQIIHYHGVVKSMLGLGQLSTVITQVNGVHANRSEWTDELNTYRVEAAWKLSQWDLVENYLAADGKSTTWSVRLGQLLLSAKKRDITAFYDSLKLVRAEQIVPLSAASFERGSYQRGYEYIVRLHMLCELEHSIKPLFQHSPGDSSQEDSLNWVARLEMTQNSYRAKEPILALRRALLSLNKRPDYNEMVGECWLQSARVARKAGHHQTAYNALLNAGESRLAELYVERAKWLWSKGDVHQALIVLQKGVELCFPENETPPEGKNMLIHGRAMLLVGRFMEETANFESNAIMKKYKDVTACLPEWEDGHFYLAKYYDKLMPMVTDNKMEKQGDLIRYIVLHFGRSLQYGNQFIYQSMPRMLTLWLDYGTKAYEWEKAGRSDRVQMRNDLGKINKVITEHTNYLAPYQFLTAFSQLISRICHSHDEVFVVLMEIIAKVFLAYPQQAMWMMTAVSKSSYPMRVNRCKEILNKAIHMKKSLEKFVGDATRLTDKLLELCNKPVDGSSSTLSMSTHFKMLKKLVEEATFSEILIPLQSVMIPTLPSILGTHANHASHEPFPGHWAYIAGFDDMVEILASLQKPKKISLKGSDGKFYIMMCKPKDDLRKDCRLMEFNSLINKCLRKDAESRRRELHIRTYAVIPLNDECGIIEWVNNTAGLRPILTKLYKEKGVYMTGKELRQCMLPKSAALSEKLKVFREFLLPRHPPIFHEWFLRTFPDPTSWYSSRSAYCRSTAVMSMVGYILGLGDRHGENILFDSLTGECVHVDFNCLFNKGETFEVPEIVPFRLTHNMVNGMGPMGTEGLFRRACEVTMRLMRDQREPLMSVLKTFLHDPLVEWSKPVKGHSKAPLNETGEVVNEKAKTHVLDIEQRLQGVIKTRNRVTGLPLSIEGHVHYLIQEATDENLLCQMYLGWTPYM
In words: ATR Inhibition Assay (radioactive-phosphate incorporation). Format: biochemical. Particulars: Ki(app); 5 nM full-length ATR, 10 μM ATP, 800 μM target peptide, 25° C.; class symbols; read-out: ATR Inhibition Ki. The procedure, abridged: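 Radiometric 33P filter assay with 5 nM full-length ATR in 50 mM Tris/HCl pH 7.5, 10 mM MgCl2, 1 mM DTT at 25 °C. Final 10 μM [γ-33P]ATP and 800 μM peptide; 10 min compound preincubation, ATP start, stopped at 24 h with phosphoric acid/ATP. Ki(app) from non-linear regression of background-corrected initial rates.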
`CC(C)S(=O)(=O)c1ccc(-c2cnc3[nH]cc(C(=O)NCc4ccccn4)c3n2)cc1` [Compound I-52, 2-(4-isopropylsulfonylphenyl)-N-(2-pyridylmethyl)-5H-pyrrolo[2,3-b]pyrazine-7-carboxamide]: the Ki lay within 0.1 to 0.5 µM.
On the same count and under the same terms, under `COc1ccc(NC(=O)c2c[nH]c3ncc(-c4ccc(S(=O)(=O)C(C)C)cc4)nc23)cc1` [Compound I-12, 2-(4-isopropylsulfonylphenyl)-N-(4-methoxyphenyl)-5H-pyrrolo[2,3-b]pyrazine-7-carboxamide] stands 0.1 to 0.5 µM; under `CCN(C(=O)c1c[nH]c2ncc(-c3ccc(S(=O)(=O)C(C)C)cc3)nc12)C1CCCCC1` [Compound I-95, N-cyclohexyl-N-ethyl-2-(4-isopropylsulfonylphenyl)-5H-pyrrolo[2,3-b]pyrazine-7-carboxamide], 0.5 to 5 µM; under `Cc1cccc(CNC(=O)c2c[nH]c3ncc(-c4ccc(S(=O)(=O)C(C)C)cc4)nc23)c1` [Compound I-16, 2-(4-isopropylsulfonylphenyl)-N-(m-tolylmethyl)-5H-pyrrolo[2,3-b]pyrazine-7-carboxamide], less than 0.1 µM.
On the same count and under the same terms, under `CC(O)c1cccc(NC(=O)c2c[nH]c3ncc(-c4ccc(S(=O)(=O)C(C)C)cc4)nc23)c1` (centres unmarked) [Compound I-34, N-[3-(1-hydroxyethyl)phenyl]-2-(4-isopropylsulfonylphenyl)-5H-pyrrolo[2,3-b]pyrazine-7-carboxamide] stands 0.1 to 0.5 µM.
Same read-out and setting: as for `Cc1cccc(C)c1CNC(=O)c1c[nH]c2ncc(-c3ccc(S(=O)(=O)C(C)C)cc3)nc12` [Compound I-89, N-[(2,6-dimethylphenyl)methyl]-2-(4-isopropylsulfonylphenyl)-5H-pyrrolo[2,3-b]pyrazine-7-carboxamide], the figure is less than 0.1 µM; as for `Cc1cccnc1CNC(=O)c1c[nH]c2ncc(-c3ccc(S(=O)(=O)C(C)C)cc3)nc12` [Compound I-83, 2-(4-isopropylsulfonylphenyl)-N-[(3-methyl-2-pyridyl)methyl]-5H-pyrrolo[2,3-b]pyrazine-7-carboxamide], 0.1 to 0.5 µM; as for `CC(C)S(=O)(=O)c1ccc(-c2cnc3[nH]cc(C(=O)N4CCCC4CO)c3n2)cc1` (centres unmarked) [Compound I-40, [2-(hydroxymethyl)pyrrolidin-1-yl]-[2-(4-isopropylsulfonylphenyl)-5H-pyrrolo[2,3-b]pyrazin-7-yl]methanone], 0.5 to 5 µM.
Consider `CC(C)S(=O)(=O)c1ccc(-c2cnc3[nH]cc(C(=O)Nc4cccc(F)c4)c3n2)cc1` [Compound I-73, N-(3-fluorophenyl)-2-(4-isopropylsulfonylphenyl)-5H-pyrrolo[2,3-b]pyrazine-7-carboxamide], for which the Ki is less than 0.1 µM.
Still for that read-out and setting: under `CC(C)S(=O)(=O)c1ccc(-c2cnc3[nH]cc(C(=O)Nc4cccc(N)c4)c3n2)cc1` [Compound I-20, N-(3-aminophenyl)-2-(4-isopropylsulfonylphenyl)-5H-pyrrolo[2,3-b]pyrazine-7-carboxamide] stands less than 0.1 µM; under `Cc1c(F)cccc1CNC(=O)c1c[nH]c2ncc(-c3ccc(S(=O)(=O)C(C)C)cc3)nc12` [Compound I-85, N-[(3-fluoro-2-methyl-phenyl)methyl]-2-(4-isopropylsulfonylphenyl)-5H-pyrrolo[2,3-b]pyrazine-7-carboxamide], less than 0.1 µM; under `Cc1cccc(CNC(=O)c2c[nH]c3ncc(-c4ccc(S(=O)(=O)C(C)C)cc4)nc23)c1Cl` [Compound I-66, N-[(2-chloro-3-methyl-phenyl)methyl]-2-(4-isopropylsulfonylphenyl)-5H-pyrrolo[2,3-b]pyrazine-7-carboxamide], less than 0.1 µM.
Turning to `CC(C)S(=O)(=O)c1ccc(-c2cnc3[nH]cc(C(=O)NCC4CCCC4)c3n2)cc1` [Compound I-30, N-(cyclopentylmethyl)-2-(4-isopropylsulfonylphenyl)-5H-pyrrolo[2,3-b]pyrazine-7-carboxamide], the Ki lay in the range of 0.5 to 5 µM.
In the case of `CC(C)S(=O)(=O)c1ccc(-c2cnc3[nH]cc(C(=O)NC4CCOCC4)c3n2)cc1` [Compound I-104, 2-(4-isopropylsulfonylphenyl)-N-tetrahydropyran-4-yl-5H-pyrrolo[2,3-b]pyrazine-7-carboxamide], the Ki lay within 0.5 to 5 µM.
In the case of `CC(C)S(=O)(=O)c1ccc(-c2cnc3[nH]cc(C(=O)Nc4cccc(C#N)c4)c3n2)cc1` [Compound I-13, N-(3-cyanophenyl)-2-(4-isopropylsulfonylphenyl)-5H-pyrrolo[2,3-b]pyrazine-7-carboxamide], the Ki was 0.1 to 0.5 µM.
As for `CC(C)S(=O)(=O)c1ccc(-c2cnc3[nH]cc(C(=O)NC4CCC(CO)CC4)c3n2)cc1` (centres unmarked) [Compound I-127, N-[4-(hydroxymethyl)cyclohexyl]-2-(4-isopropylsulfonylphenyl)-5H-pyrrolo[2,3-b]pyrazine-7-carboxamide], the Ki was less than 0.1 µM.
For `CC(C)S(=O)(=O)c1ccc(-c2cnc3[nH]cc(C(=O)Nc4noc5ccccc45)c3n2)cc1` [Compound I-43, N-(1,2-benzoxazol-3-yl)-2-(4-isopropylsulfonylphenyl)-5H-pyrrolo[2,3-b]pyrazine-7-carboxamide], the Ki was less than 0.1 µM.
On the same count and under the same terms, under `Cc1cccc(NC(=O)c2c[nH]c3ncc(-c4ccc(S(=O)(=O)C(C)C)cc4)nc23)c1` [Compound I-76, 2-(4-isopropylsulfonylphenyl)-N-(m-tolyl)-5H-pyrrolo[2,3-b]pyrazine-7-carboxamide] stands 0.5 to 5 µM; under `CC(C)S(=O)(=O)c1ccc(-c2cnc3[nH]cc(C(=O)NCc4cccc(F)c4)c3n2)cc1` [Compound I-75, N-[(3-fluorophenyl)methyl]-2-(4-isopropylsulfonylphenyl)-5H-pyrrolo[2,3-b]pyrazine-7-carboxamide], 0.1 to 0.5 µM.
For `CC(C)S(=O)(=O)c1ccc(-c2cnc3[nH]cc(C(=O)N[C@H](C)c4ccccc4)c3n2)cc1` [Compound I-45, 2-(4-isopropylsulfonylphenyl)-N-[(1R)-1-phenylethyl]-5H-pyrrolo[2,3-b]pyrazine-7-carboxamide], the Ki was less than 0.1 µM.
Turning to `CC(C)S(=O)(=O)c1ccc(-c2cnc3[nH]cc(C(=O)NCc4ccc(N(C)C)cc4)c3n2)cc1` [Compound I-49, N-[(4-dimethylaminophenyl)methyl]-2-(4-isopropylsulfonylphenyl)-5H-pyrrolo[2,3-b]pyrazine-7-carboxamide], the Ki was less than 0.1 µM.
With `CCC[C@@H](CO)NC(=O)c1c[nH]c2ncc(-c3ccc(S(=O)(=O)C(C)C)cc3)nc12` [Compound I-112, N-[(1S)-1-(hydroxymethyl)butyl]-2-(4-isopropylsulfonylphenyl)-5H-pyrrolo[2,3-b]pyrazine-7-carboxamide], the Ki was less than 0.1 µM.
`CC(C)S(=O)(=O)c1ccc(-c2cnc3[nH]cc(C(=O)NC4CCc5ccccc54)c3n2)cc1` (centres unmarked) [Compound I-53, N-indan-1-yl-2-(4-isopropylsulfonylphenyl)-5H-pyrrolo[2,3-b]pyrazine-7-carboxamide]: the Ki was less than 0.1 µM.
Still for that read-out and setting: under `CC(C)S(=O)(=O)c1ccc(-c2cnc3[nH]cc(C(=O)NCCc4ccccn4)c3n2)cc1` [Compound I-61, 2-(4-isopropylsulfonylphenyl)-N-[2-(2-pyridyl)ethyl]-5H-pyrrolo[2,3-b]pyrazine-7-carboxamide] stands less than 0.1 µM.
In the case of `CC(C)S(=O)(=O)c1ccc(-c2cnc3[nH]cc(C(=O)N[C@@H](C(N)=O)c4ccccc4)c3n2)cc1` [Compound I-123, N-[(1R)-2-amino-2-oxo-1-phenyl-ethyl]-2-(4-isopropylsulfonylphenyl)-5H-pyrrolo[2,3-b]pyrazine-7-carboxamide], the Ki was 0.1 to 0.5 µM.
With `CC(C)S(=O)(=O)c1ccc(-c2cnc3[nH]cc(C(=O)N(Cc4ccccc4)c4ccccc4)c3n2)cc1` [Compound I-8, N-benzyl-2-(4-isopropylsulfonylphenyl)-N-phenyl-5H-pyrrolo[2,3-b]pyrazine-7-carboxamide], the Ki fell in the range of 0.5 to 5 µM.
Still for that read-out and setting: under `CC(C)S(=O)(=O)c1ccc(-c2cnc3[nH]cc(C(=O)NC4CCOC4)c3n2)cc1` (centres unmarked) [Compound I-118, 2-(4-isopropylsulfonylphenyl)-N-tetrahydrofuran-3-yl-5H-pyrrolo[2,3-b]pyrazine-7-carboxamide] stands 0.1 to 0.5 µM; under `CC(C)S(=O)(=O)c1ccc(-c2cnc3[nH]cc(C(=O)NOc4ccccc4)c3n2)cc1` [Compound I-100, 2-(4-isopropylsulfonylphenyl)-N-phenoxy-5H-pyrrolo[2,3-b]pyrazine-7-carboxamide], less than 0.1 µM.

The same assay, now with this note: Ki(app); 5 nM full-length ATR, 10 μM ATP, 800 μM target peptide, 25° C.; given as numeric lower bound without unit; read-out: ATR Inhibition Ki.
With `CC(C)S(=O)(=O)c1ccc(-c2cnc3[nH]cc(C(=O)N(CC(N)=O)C4CCCC4)c3n2)cc1` [Compound I-131, N-(2-amino-2-oxo-ethyl)-N-cyclopentyl-2-(4-isopropylsulfonylphenyl)-5H-pyrrolo[2,3-b]pyrazine-7-carboxamide], the Ki was more than 0.04 µM.
On the same count and under the same terms, under `CC(C)S(=O)(=O)c1ccc(-c2cnc3[nH]cc(C(=O)NC4CN(C(=O)OC(C)(C)C)C4)c3n2)cc1` [Compound I-111, tert-butyl 3-[[2-(4-isopropylsulfonylphenyl)-5H-pyrrolo[2,3-b]pyrazine-7-carbonyl]amino]azetidine-1-carboxylate] stands more than 0.25 µM; under `CC(C)S(=O)(=O)c1ccc(-c2cnc3[nH]cc(C(=O)N4CCC(N(C)C)CC4)c3n2)cc1` [Compound I-99, [4-(dimethylamino)-1-piperidyl]-[2-(4-isopropylsulfonylphenyl)-5H-pyrrolo[2,3-b]pyrazin-7-yl]methanone], more than 4 µM; under `CC(C)S(=O)(=O)c1ccc(-c2cnc3[nH]cc(C(=O)N(C)c4ccccc4)c3n2)cc1` [Compound I-3, 2-(4-isopropylsulfonylphenyl)-N-methyl-N-phenyl-5H-pyrrolo[2,3-b]pyrazine-7-carboxamide], more than 0.25 µM.
